Test results taken from PubChem BioAssay (NCI).
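Abbreviation: GI50, concentration required for 50% inhibition of growth. TGI denotes the concentration required for complete inhibition of growth.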

Experiments:
Assay in all cases: inhibition of tumour cell growth, NCI panel, 384-well format
[1] = test system: 786-0 renal
[2] = test system: A498 renal
[3] = test system: A549 NSCLC
[4] = test system: ACHN renal
[5] = test system: BT-549 breast
[6] = test system: CAKI-1 renal
[7] = test system: CCRF-CEM leukemia
[8] = test system: COLO 205 colon
[9] = test system: DU-145 prostate
[10] = test system: EKVX NSCLC
[11] = test system: HCC-2998 colon
[12] = test system: HCT-15 colon
[13] = test system: HL-60(TB) leukemia
[14] = test system: HOP-62 NSCLC
[15] = test system: HOP-92 NSCLC
[16] = test system: HS 578T breast
[17] = test system: HT29 colon
[18] = test system: IGROV1 ovarian
[19] = test system: K-562 leukemia
[20] = test system: KM12 colon
[21] = test system: LOX IMVI melanoma
[22] = test system: M14 melanoma
[23] = test system: MALME-3M melanoma
[24] = test system: MCF7 breast
[25] = test system: MDA-MB-231 breast
[26] = test system: MDA-MB-435 melanoma
[27] = test system: MDA-MB-468 breast
[28] = test system: MOLT-4 leukemia
[29] = test system: NCI-H226 lung
[30] = test system: NCI-H23 lung
[31] = test system: NCI-H322M lung
[32] = test system: NCI-H460 NSCLC
[33] = test system: NCI-H522 lung
[34] = test system: NCI/ADR-RES ovarian
[35] = test system: OVCAR-3 ovarian
[36] = test system: OVCAR-4 ovarian
[37] = test system: OVCAR-5 ovarian
[38] = test system: OVCAR-8 ovarian
[39] = test system: PC-3 prostate
[40] = test system: RPMI-8226 leukemia
[41] = test system: RXF 393 renal
[42] = test system: SF-268 CNS
[43] = test system: SF-295 CNS
[44] = test system: SF-539 CNS
[45] = test system: SK-MEL-28 melanoma
[46] = test system: SK-MEL-5 melanoma
[47] = test system: SK-OV-3 ovarian
[48] = test system: SN12C renal
[49] = test system: SNB-19 CNS
[50] = test system: SNB-75 CNS
[51] = test system: SR leukemia
[52] = test system: SW-620 colon
[53] = test system: T-47D breast
[54] = test system: TK-10 renal
[55] = test system: U251 glioblastoma
[56] = test system: UACC-257 melanoma
[57] = test system: UACC-62 melanoma
[58] = test system: UO-31 renal
[59] = test system: HCT-116 colon

Cn1cncc1[C@@](N)(c1ccc(Cl)cc1)c1ccc2c(c1)c(-c1cccc(Cl)c1)cc(=O)n2C
GI50 [1]: 1.16 µM | TGI [1]: 8.76 µM | GI50 [2]: 0.0746 µM | TGI [2]: 4.04 µM | GI50 [3]: 1.64 µM | TGI [3]: 11.1 µM | GI50 [4]: 1.28 µM | TGI [4]: 5.31 µM | GI50 [5]: 1.34 µM | TGI [5]: 4.32 µM | GI50 [6]: 2.11 µM | TGI [6]: 11.9 µM | GI50 [7]: < 0.01 µM | TGI [7]: 1.25 µM | GI50 [8]: 1.23 µM | TGI [8]: 3.77 µM | GI50 [9]: 2.4 µM | TGI [9]: 12.1 µM | GI50 [10]: 1.52 µM | TGI [10]: 6.02 µM | GI50 [11]: 1.27 µM | TGI [11]: 3.23 µM | GI50 [12]: 0.884 µM | TGI [12]: 5.18 µM | GI50 [13]: < 0.01 µM | TGI [13]: 1.28 µM | GI50 [14]: 1.9 µM | TGI [14]: 8.68 µM | GI50 [15]: 0.271 µM | TGI [15]: 3.62 µM | GI50 [16]: 1.46 µM | TGI [16]: 4.62 µM | GI50 [17]: 1.38 µM | TGI [17]: 3.62 µM | GI50 [18]: 1.56 µM | TGI [18]: 4.99 µM | GI50 [19]: 0.2 µM | TGI [19]: 2.05 µM | GI50 [20]: 0.186 µM | TGI [20]: 2.31 µM | GI50 [21]: 1.13 µM | TGI [21]: 3.31 µM | GI50 [22]: 0.022 µM | TGI [22]: 2.21 µM | GI50 [23]: 0.141 µM | TGI [23]: 2.05 µM | GI50 [24]: 1.08 µM | TGI [24]: 3.66 µM | GI50 [25]: 1.52 µM | TGI [25]: 8.3 µM | GI50 [26]: 0.189 µM | TGI [26]: 1.51 µM | GI50 [27]: 0.0235 µM | TGI [27]: 1.83 µM | GI50 [28]: < 0.01 µM | TGI [28]: 0.0579 µM | GI50 [29]: 1.08 µM | TGI [29]: 6.96 µM | GI50 [30]: 1.51 µM | TGI [30]: 4.81 µM | GI50 [31]: 2.06 µM | TGI [31]: 15.8 µM | GI50 [32]: 0.391 µM | TGI [32]: 6.17 µM | GI50 [33]: 1.1 µM | TGI [33]: 3.85 µM | GI50 [34]: 1.62 µM | TGI [34]: 5.51 µM | GI50 [35]: 1.25 µM | TGI [35]: 3.77 µM | GI50 [36]: 1.13 µM | TGI [36]: 5.26 µM | GI50 [37]: 2.49 µM | TGI [37]: 12.2 µM | GI50 [38]: 2.41 µM | TGI [38]: 12.3 µM | GI50 [39]: 1.42 µM | TGI [39]: 6.97 µM | GI50 [40]: 0.0111 µM | TGI [40]: 0.218 µM | GI50 [41]: 0.472 µM | TGI [41]: 10.1 µM | GI50 [42]: 1.78 µM | TGI [42]: 11.4 µM | GI50 [43]: 0.463 µM | TGI [43]: 2.78 µM | GI50 [44]: 1.21 µM | TGI [44]: 4.33 µM | GI50 [45]: 1.37 µM | TGI [45]: 6.44 µM | GI50 [46]: 0.313 µM | TGI [46]: 2.13 µM | GI50 [47]: 1.26 µM | TGI [47]: 8.17 µM | GI50 [48]: 0.179 µM | TGI [48]: 5.39 µM | GI50 [49]: 2.33 µM | TGI [49]: 13.2 µM | GI50 [50]: 1.35 µM | TGI [50]: 4.96 µM | GI50 [51]: 0.0129 µM | TGI [51]: 0.194 µM | GI50 [52]: 1.36 µM | TGI [52]: 4.41 µM | GI50 [53]: 0.0645 µM | TGI [53]: 3.67 µM | GI50 [54]: 1.75 µM | TGI [54]: 6.98 µM | GI50 [55]: 1.11 µM | TGI [55]: 12.6 µM | GI50 [56]: 1.38 µM | TGI [56]: 4.88 µM | GI50 [57]: 0.173 µM | TGI [57]: 2.75 µM | GI50 [58]: 0.708 µM | TGI [58]: 9.77 µM

CCCN(CCC)C(=O)C1=Cc2ccc(-c3ccc(C(=O)N4CCCC4)cc3)cc2N=C(N)C1
GI50 [1]: 4.81 µM | TGI [1]: 16.6 µM | GI50 [2]: 3.93 µM | TGI [2]: 15.3 µM | GI50 [3]: 6.2 µM | TGI [3]: 19.9 µM | GI50 [4]: 10.8 µM | TGI [4]: 23.5 µM | GI50 [5]: 4.19 µM | TGI [5]: 14.8 µM | GI50 [6]: 5.86 µM | TGI [6]: 19.2 µM | GI50 [7]: 3.53 µM | TGI [7]: 11.2 µM | GI50 [8]: 4.89 µM | TGI [8]: 16.9 µM | GI50 [9]: 9.15 µM | TGI [9]: 22.2 µM | GI50 [10]: 3.93 µM | TGI [10]: 16.5 µM | GI50 [11]: 5.42 µM | TGI [11]: 18.3 µM | GI50 [59]: 3.47 µM | TGI [59]: 13.1 µM | GI50 [12]: 3.48 µM | TGI [12]: 14.1 µM | GI50 [13]: 1.52 µM | TGI [13]: 2.86 µM | GI50 [14]: 3.07 µM | TGI [14]: 11.7 µM | GI50 [15]: 4 µM | TGI [15]: 15.7 µM | GI50 [16]: 3.34 µM | TGI [16]: 12 µM | GI50 [17]: 3.41 µM | TGI [17]: 11.9 µM | GI50 [18]: 10 µM | TGI [18]: 23.4 µM | GI50 [19]: 2.52 µM | TGI [19]: 10.3 µM | GI50 [20]: 2.81 µM | TGI [20]: 11.2 µM | GI50 [21]: 5.71 µM | TGI [21]: 18.2 µM | GI50 [22]: 3.76 µM | TGI [22]: 13 µM | GI50 [23]: 3.81 µM | TGI [23]: 14.6 µM | GI50 [24]: 3.11 µM | TGI [24]: 12.1 µM | GI50 [25]: 5.09 µM | TGI [25]: 17.5 µM | GI50 [26]: 2.2 µM | TGI [26]: 5.73 µM | GI50 [27]: 1.63 µM | TGI [27]: 5.02 µM | GI50 [28]: 2.51 µM | TGI [28]: 8.74 µM | GI50 [29]: 10.7 µM | TGI [29]: 23.8 µM | GI50 [30]: 3.67 µM | TGI [30]: 14.7 µM | GI50 [31]: 7.93 µM | TGI [31]: 20.6 µM | GI50 [32]: 2.23 µM | TGI [32]: 5.31 µM | GI50 [33]: 2.69 µM | TGI [33]: 10.3 µM | GI50 [34]: 12.8 µM | TGI [34]: 27.9 µM | GI50 [35]: 2.78 µM | TGI [35]: 6.51 µM | GI50 [36]: 12.4 µM | TGI [36]: 26 µM | GI50 [38]: 8.34 µM | TGI [38]: 21.4 µM | GI50 [39]: 3.66 µM | TGI [39]: 13.9 µM | GI50 [40]: 1.78 µM | TGI [40]: 5.78 µM | GI50 [41]: 2.52 µM | TGI [41]: 10.4 µM | GI50 [42]: 5.11 µM | TGI [42]: 17.6 µM | GI50 [43]: 3.42 µM | TGI [43]: 12.9 µM | GI50 [44]: 3.99 µM | TGI [44]: 16.6 µM | GI50 [45]: 11 µM | TGI [45]: 23 µM | GI50 [46]: 1.6 µM | TGI [46]: 3.65 µM | GI50 [47]: 5.22 µM | TGI [47]: 17.2 µM | GI50 [48]: 13.4 µM | TGI [48]: 29.4 µM | GI50 [49]: 4.95 µM | TGI [49]: 17.4 µM | GI50 [50]: 3.48 µM | TGI [50]: 12.5 µM | GI50 [51]: 1.31 µM | TGI [51]: 3.21 µM | GI50 [52]: 4.06 µM | TGI [52]: 14.6 µM | GI50 [53]: 3.02 µM | TGI [53]: 14.4 µM | GI50 [54]: 10.3 µM | TGI [54]: 23.3 µM | GI50 [55]: 5.15 µM | TGI [55]: 17.4 µM | GI50 [56]: 5.77 µM | TGI [56]: 18.7 µM | GI50 [57]: 4.59 µM | TGI [57]: 16.4 µM | GI50 [58]: 8.31 µM | TGI [58]: 21.1 µM
